Results: patent EP0465913B1, “Diaminotrifluoromethylpyrimidine derivatives, process for their production and phospholipase A2 inhibitor containing them” (ISHIHARA SANGYO KAISHA, LTD., priority 1990, dated 1992)
Where two headings read alike, the source gives them in different places.

Tests used:
[1] = molecular target: T1, Porcine pancreatic phospholipase A2 (Sus scrofa, UniProt P00592); assay: Phospholipase A2 inhibitory activity, method B (L-α-dipalmitoylphosphatidylcholine substrate); assay type: biochemical; conditions: 37°C for 30 minutes; for inhibition at 1000 ppm: 1,000 ppm, read-out: % inhibition of PLA2 (1,000 ppm)
T1 construct: purchased Boehringer Mannheim·Yamanouchi K.K. 161454·122416
Protocol: To a solution prepared by dissolving 9.2 mg of L-α-dipalmitoylphosphatidylcholine (manufactured by Nichiyu Liposome K.K.) in 0.5 ml of chloroform, a solution prepared by dissolving 32 mg of sodium cholate (manufactured by Wako Pure Chemical Industries, Ltd.) in 0.5 ml of methanol, was added, followed by mixing. The solvent of the mixture was removed under a nitrogen stream, and then 2.5 ml of a 250 mM sodium chloride solution [prepared by dissolving sodium chloride in a 100 mM Tris-HCl buffer solution {tris(hydroxymethyl)aminomethane (manufactured by Nacalai Tesque K.K.) was adjusted to pH8.0 with hydrochloric acid}] was added thereto, and the mixture was dissolved under stirring to obtain a substrate.
Porcine pancreatic phospholipase A2 [(161454·122416) manufactured by Boehringer Mannheim·Yamanouchi K.K.] was used.
To a 96 well microtitration plate, 20 µl of a solution containing calcium chloride, bovine serum alubmin (manufactured by Sigma Chemical, Co.) and a Tris-HCl buffer solution (pH8.0) at concentrations of 25 mM, 4.5 mg/ml and 100 mM, respectively, 5 µl of a solution prepared by dissolving 10 mg of a test compound in 500 µl of diemthylsulfoxide, followed by an addition of 500 µl of a 200 mM Tris-HCl buffer solution, 5 µl of an enzyme solution (10 µg/ml) [prepared by dissolving the enzyme in a bovine serum alubmin solution (prepared by dissolving bovine serum alubmin in a 100 mM Tris-HCl buffer solution at a concentration of 1 mg/ml)] and 20 µl of the substrate, were added and reacted at 37°C for 30 minutes. After termination of the reaction, the released free fatty acid was quantitatively analyzed in accordance with the ACS-ACOD (acyl CoA synthetase-acyl CoA oxidase) method [a kit of NEFA C test wako (manufactured by Wako Pure Chemical Industries, Ltd.) was used]. The quantitative analysis was made by means of Microplate ELISA Reader (Model 2550EIA Reader, manufactured by Bio-Rad Laboratories) at a wavelength of 540 nm. Separately, such experiments as mentioned above, were carried out at various concentrations (1 µg/ml, 0.75 µg/ml, 0.5 µg/ml and 0.25 µg/ml) of phospholipase A2 without a test compound. Then, the concentration of the free fatty acid versus the concentration of phospholipase A2 was plotted.
From this standard curve, the apparent concentration of phospholipase A2 in the case with a test compound, was read. Then, the percent inhibition of the enzyme was calculated by the following formula. Percent inhibition (%) = (l -(A)/(B)) x 100 [formula] • A: Apparent enzyme concentration when a test compound is added. • B: True enzyme concentration when a test compound is added.

[2] = system: experimental acute pancreatitis model; assay: Effects against acute pancreatitis (Test Example 8, closed duodenal loop method, lesion scores); assay type: in vivo, Crj-CD male rats; conditions: Rattus norvegicus, 10 mg/kg single intravenous injection, sodium salt, 6 hours after ventrotomy
Protocol: Using Crj-CD male rats, each test group consisted of 3 rats. An experimental acute pancreatitis model was prepared by a closed duodenal loop method under anethesia with halothane (manufactured by Hoechst Japan) and nitrous oxide (manufactured by Sumitomo Seika K.K.) applied by a general inhalation anesthesia machine (Model EM2 and halothane evaporator F-Model). Each compound (subjected to the test in the form of a sodium salt) was continuously intravenously injected into the tail vein in an amount of 0.4 ml/100 g to 0.6 ml/100 g at a rate of 0.05 ml per minute by a pump (Technicon AA II Proportioning Pump III, manufactured by Technicon Instruments Corporation) or rapidly intravenously injected. No injection was made to a control group. Gross pathological examination was conducted upon expiration of 6 hours after the ventrotomy in the case of the group to which the compound was administered. With respect to each of four lesions among pancreatic lesions i.e. petechia, ecchymosis, pancreatic necrosis and abdominal fatty necrosis, the grade and the distribution of lesions were scored with five grades of 0, 0.5, 1, 2 and 3 (severe lesions are 3). The sum of all lesions was designated as scores of pancreatitis lesions, and the sum of the score of petechia and the score of ecchymosis only was designated as scores of hemorrhagic lesions. The pancreatitis inhibition rate (%) and the hemorrhage inhibition rate (%) were obtained by the following formulas, and the results are shown in Table 13. Pancreatitis inhibition rate (%) = (l -(H)/(G)) x 100 [formula] • H: Scores of pancreatitis lesions of the group to which a test compound was administered. • G: Scores of pancreatitis lesions of the control group. Hemorrhage inhibition rate (%) = (l -(J)/(I)) x 100 [formula] • J: Scores of hemorrhagic lesions of the group to which a test compound was administered. • I: Scores of hemorrhagic lesions of the control group.

[3] = system: carrageenin edema; assay: Inhibitory activity on carrageenin edema; assay type: in vivo, Wistar male rats; conditions: rat; dose 50 mg/kg orally; paw swelling volume three hours after carrageenin
Protocol: Using Wistar male rats (body weight: about 100 g), each test group consisted of 5 rats. A test compound was mixed with Tween 80 [polyoxyethylenesorbitan monooleate (manufactured by Nacalai Tesque K.K.)], and distilled water was added thereto to obtain a 2% Tween 80 suspension, or it was dissolved in the form of a salt in water to obtain an aqueous solution. Either the suspension or the aqueous solution was orally administered in an amount of 200 mg/kg, 100 mg/kg, 50 mg/kg or 25 mg/kg. One hour later, 0.1 ml of a 1% λ-carrageenin solution dissolved in a physiological saline was injected subcutaneously to the right hind paw of each rat to cause inflamation. Three hours later, the paw volume was measured by a paw volume measuring device (manufactured by Ugobasiee K.K.). A swelling volume was obtained from the difference from the value before the inflammation. Inhibition rate (%) = (l -(F)/(E)) x 100 [formula] • F: Average swelling volume in the group to which a test compound was administered. • E: Average swelling volume in the control group.

[4] = read-out: Inhibition rate of hemorrhagic lesions (%)
[5] = read-out: Inhibition rate of pancreatitis lesions (%)

T1 sequence (P00592 23-146): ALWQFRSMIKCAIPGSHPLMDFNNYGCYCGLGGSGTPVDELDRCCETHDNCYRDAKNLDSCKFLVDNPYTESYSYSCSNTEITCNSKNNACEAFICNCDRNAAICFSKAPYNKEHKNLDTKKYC

Compound | inhibition at 1000 ppm [1] | further results
CCS(=O)(=O)Nc1ncc(C(F)(F)F)cc1NC(=O)C1CC=CCC1 (centres unmarked) [compound 95] | 85% | –
CCS(=O)(=O)Nc1ncc(C(F)(F)F)cc1NC(=O)C1CCCCCC1 [compound 97] | 88% | inhibition in vivo at 10 mg/kg [2, 4]: 35%; inhibition in vivo at 10 mg/kg [2, 5]: 35%
CCS(=O)(=O)Nc1ncc(C(F)(F)F)cc1NC(=O)c1cccc(C(F)(F)F)c1 [compound 99] | 86% | –
CCS(=O)(=O)Nc1ncc(C(F)(F)F)cc1NC(=O)c1ccc(C(F)(F)F)cc1 [compound 100] | 83% | –
CC(C)S(=O)(=O)Nc1ncc(C(F)(F)F)cc1NC(=O)C1CCCCC1 [compound 103] | 86% | –
CCCCS(=O)(=O)Nc1ncc(C(F)(F)F)cc1NC(=O)C1CC1 [compound 107] | – | inhibition in vivo at 10 mg/kg [2, 4]: 63%; inhibition in vivo at 10 mg/kg [2, 5]: 61%
CCCCS(=O)(=O)Nc1ncc(C(F)(F)F)cc1NC(=O)C(F)(F)Cl [compound 108] | 61% | –
COc1ccc(S(=O)(=O)Nc2ncc(C(F)(F)F)cc2NC(=O)c2cccs2)cc1 [compound 109] | 67% | –
CN(C)S(=O)(=O)Nc1ncc(C(F)(F)F)cc1NC(=O)C1CCCC1 [compound 111] | 41% | –
CN(C)S(=O)(=O)Nc1ncc(C(F)(F)F)cc1NC(=O)C(F)(F)C(F)(F)F [compound 112] | 79% | –
COS(=O)(=O)Nc1ncc(C(F)(F)F)cc1NC(=O)C1CCCCC1 [compound 115] | 52% | –
COS(=O)(=O)Nc1ncc(C(F)(F)F)cc1NC(=O)c1ccc2c(c1)CCC2 [compound 116] | 69% | –
CCOS(=O)(=O)Nc1ncc(C(F)(F)F)cc1NC(=O)C1CCCCC1 [compound 117] | 65% | inhibition in vivo at 10 mg/kg [2, 4]: 30%; inhibition in vivo at 10 mg/kg [2, 5]: 30%
CCOS(=O)(=O)Nc1ncc(C(F)(F)F)cc1NC(=O)c1ccc2c(c1)CCC2 [compound 118] | 84% | –
Cc1cc(C)cc(C(=O)Nc2cc(C(F)(F)F)cnc2NS(C)(=O)=O)c1 [compound 122] | 56% | inhibition in vivo at 10 mg/kg [2, 4]: 51%; inhibition in vivo at 10 mg/kg [2, 5]: 51%
CCCCCCC(=O)Nc1cc(C(F)(F)F)cnc1NS(C)(=O)=O [compound 124] | 78% | inhibition in vivo at 10 mg/kg [2, 4]: 51%; inhibition in vivo at 10 mg/kg [2, 5]: 51%
O=C(Nc1cc(C(F)(F)F)cnc1NS(=O)(=O)c1cccs1)C1CCCCC1 [compound 126] | 84% | –
O=C(Nc1cc(C(F)(F)F)cnc1NS(=O)(=O)c1cccs1)c1ccc2c(c1)CCC2 [compound 127] | 89% | –
O=C(Nc1ncc(C(F)(F)F)cc1NC(=O)C1CCCCC1)c1ccccc1 [compound 150] | – | Inhibition rate (%) [3]: 23%
CS(=O)(=O)Nc1ncc(C(F)(F)F)cc1NC(=O)C(F)(F)C(F)(F)F [compound 260] | – | % inhibition of PLA2 (1,000 ppm) [1]: 53%
